Assay results reported in patent US20200255844A1, “MULTIPLEXED RECEPTOR-LIGAND INTERACTION SCREENS” (THE REGENTS OF THE UNIVERSITY OF CALIFORNIA, priority 2017, published 2020).

Tests used:
Assay type in all cases: cell-based, mouse
MOR189-1 = assay: High-throughput multiplexed odorant screening (Smell-seq), barcode RNA-seq readout; conditions: OR MOR189-1; pair called as hit, FDR=1%
From the text: (§1) We subsequently screened 182 odorants at three concentrations in triplicate against the OR cell library, the equivalent of ˜85,000 individual luciferase assays including controls (FIG. 10A, Table 2). Each 96-well plate in the assay contained positive control odorants and solvent DMSO wells for normalization (FIG. 16). We used the EdgeR software package to determine differentially responsive ORs based on a negative binomial model of barcode counts. We found 114 OR-odorant interactions (out of 7,200 possible), 81 of which are novel, and 24 interactions with 15 orphan receptors (FIG. 10C, FIG. 17 and Supplementary Table 4) (FDR=1%; Benjamini-Hochberg correction). Overall 28 of 39 receptors were activated by at least one odorant, and 68 of 182 odorants activated at least one OR (Table 4). We chose 37 interactions of at least 1.2 fold induction to test individually with a previously developed transient OR assay that has several important differences (FIG. 18). Of the 28 interactions called as hits at an FDR of 1%, 21 of them replicated in this orthogonal system (FIG. 17). […] Conversely, we also detect 14 interactions that this previous study tested, but called negative.

MOR139-1 = assay: as above; conditions: OR MOR139-1; pair called as hit, FDR=1%
From the text: as §1

Olfr62 = assay: as above; conditions: OR Olfr62; pair called as hit, FDR=1%
From the text: as §1

MOR170-1 = assay: High-throughput multiplexed odorant screening (Smell-seq), 96-well, barcode RNA-seq readout; conditions: OR MOR170-1; pair called as hit, FDR=1%
Method: (§2) 10. High-Throughput Odorant Screening
(§3) The OR library cell line was thawed from a liquid nitrogen frozen stock into a T-225 flask (Corning) three days before seeding into a 96-well plate for screening. The library was seeded at 6,666 cells per well in 100 ul of DMEM. 24 hours later a working concentration of 1 ug/ml of doxycycline in DMEM was added to the wells. 24 hours after induction, the media was removed from each plate and replaced with 25 ul of odorant diluted in OptiMEM. Each odor was added at three different concentrations (10 uM, 100 uM, 1 mM) in triplicate with the same amount of final DMSO (1%). Each plate contained two control odorants at a three concentration (10 uM, 100 uM, 1 mM) in triplicate and three wells containing 1% DMSO dissolved in media. The library was incubated with odorants for three hours in a cell culture incubator with the lids removed.
(§4) After odor incubation, media was pipetted out of the plates and cells were lysed by adding 25 uL of ice-cold Cells-to-cDNA II Lysis Buffer (Thermo Fisher) and pipetting up and down to homogenize and lyse cells. The lysate was then heated to 75° C. for 15 minutes and flash frozen with liquid nitrogen and kept at −80 C until further processing. Then 0.5 uL DNase I (New England Biolabs) was added to lysate, and incubated at 37° C. for 15 minutes. To anneal the RT primer, 5 ul of lysate from each well was combined with 2.5 ul of 10 mM dNTPs (New England Biosciences), 1 ul of 2 uM gene specific RT primer (OL003), and 1.5 ul of H2O. The reaction was heated to 65° C. for 5 min and cooled back down to 0° C. After annealing, 1 ul of M-MuLV Reverse Transcriptase (Enzymatics), 1 ul of buffer, and 0.25 ul of RNase Inhibitor (Enzymatics) were added to each reaction. Reactions were incubated at 42° C. for 60 min and the RT enzyme was heat inactivated at 85° C. for 10 min.
(§5) For each batch, qPCR was performed on a few wells (OL005F and OL013) with SYBR FAST qPCR Mastermix to determine the number of cycles necessary for PCR based library preparation. The reaction and cycling conditions are optimized as follows: 95° C. for 3 minutes, 40 cycles of 95° C. for 3 seconds and 60° C. for 20 seconds. After qPCR, 5 ul of each RT reaction was combined with 0.4 ul of 10 uM primers containing sequencing adaptors (OL005F and OL013), 10 ul of NEB-Next Q5 Mastermix (New England Biosciences) and 4.2 ul H2O, the PCR was carried out according to the manufacturer's protocol. The forward primer contains the P7 adaptor sequence and an index identifying the well in the assay and the reverse primer contains the P5 adaptor sequence and an index identifying the plate in the assay. PCR products were pooled together by plate and purified with the DNA Clean and Concentrator Kit. Library concentrations were quantified using a Tape Station 2200 and a Qubit (Thermo Fisher). The libraries were sequenced with two index reads and a single end 75-bp read on a NextSeq 500 in high-output mode (Illumina).
(§6) 11. Analysis of Next-Generation Sequencing Data
(§7) Samples were identified via indexing by their PCR indexes adapters unique for each well (5′ end) and unique for each plate (3′ end). The well barcodes followed the 7 bp indexing scheme in (Illumina Sequencing Library Preparation for Highly Multiplexed Target Capture and Sequencing Matthias Meyer, Martin Kircher, Cold Spring Harb Protoc; 2010; doi:10.1101/pdb.prot5448). The plate indexing scheme followed the Illumina indexing scheme. Sequencing data was demultiplexed and 15 bp barcode sequences were counted with only exact matches by custom python and bash scripts.
(§8) 12. Statistical Methods for Calling Hits
(§9) Count data was then analyzed using the differential expression package EdgeR. To filter out ORs with low representation, we set a cutoff that an OR had to contain at least 0.5% of the reads from more than 399 of the 1954 test samples. This filtered out 3 of 42 ORs which were underrepresented in the cell library (MOR172-1, MOR176-1 and MOR181-1). […]

MOR25-1 = assay: High-throughput multiplexed odorant screening (Smell-seq), barcode RNA-seq readout; conditions: OR MOR25-1; pair called as hit, FDR=1%
From the text: as §1

MOR131-1 = assay: as above; conditions: OR MOR131-1; pair called as hit, FDR=1%
From the text: as §1

MOR5-1 = assay: High-throughput multiplexed odorant screening (Smell-seq), 96-well, barcode RNA-seq readout; conditions: OR MOR5-1; pair called as hit, FDR=1%
Method: as §2, §3, §4, §5, §6, §7, §8, §9

MOR23-1 = assay: High-throughput multiplexed odorant screening (Smell-seq), barcode RNA-seq readout; conditions: OR MOR23-1; pair called as hit, FDR=1%
From the text: as §1

MOR13-1 = assay: High-throughput multiplexed odorant screening (Smell-seq), 96-well, barcode RNA-seq readout; conditions: OR MOR13-1; pair called as hit, FDR=1%
From the text: We find that chemicals with similar features activate similar sets of ORs, including those receptors we deorphanize in this study. For example, the previously orphan MOR13-1 is activated by four chemicals with polar groups attached, in three cases, to stiff non-rotatable scaffolds. Another example is, MOR19-1, which has clear affinity for the salicylate functional group. To better understand how chemical similarity relates to receptor activation without relying on incomplete and sometimes arbitrary chemical descriptors, we used a previously validated computational autoencoder to represent each chemical in a ˜292 dimensional latent space, allowing nearly lossless compression of chemical structure (Data not shown). We find chemicals that activate the same OR tend to cluster distinctly (FIG. 10D, FIG. 20). […] Many, but not all of the receptors. […] Understanding the space of chemicals that activates each OR establishes the groundwork for prediction of novel odorant-OR interactions.
as §2, §3
After odor incubation, media was pipetted out of the plates and cells were lysed by adding 25 uL of ice-cold Cells-to-cDNA II Lysis Buffer (Thermo Fisher) and pipetting up and down to homogenize and lyse cells. The lysate was then heated to 75° C. for 15 minutes and flash frozen with liquid nitrogen and kept at −80 C until further processing. Then 0.5 uL DNase I (New England Biolabs) was added to lysate, and incubated at 37° C. for 15 minutes. […]
For each batch, qPCR was performed on a few wells (OL005F and OL013) with SYBR FAST qPCR Mastermix to determine the number of cycles necessary for PCR based library preparation. […] Library concentrations were quantified using a Tape Station 2200 and a Qubit (Thermo Fisher). The libraries were sequenced with two index reads and a single end 75-bp read on a NextSeq 500 in high-output mode (Illumina). […]

MOR30-1 = assay: High-throughput multiplexed odorant screening (Smell-seq), barcode RNA-seq readout; conditions: OR MOR30-1; pair called as hit, FDR=1%
From the text: as §1

## c1ccc2ncccc2c1
MOR189-1
  Minimum Activating Concentration: 1000 µM
MOR139-1
  Minimum Activating Concentration: 100 µM
Olfr62
  Minimum Activating Concentration: 1000 µM
MOR170-1
  Minimum Activating Concentration: 100 µM

## C=C(C)C1CC=C(C)C(=O)C1 (single isomer, unassigned; (-)) [(−)-Carvone]
MOR25-1
  Minimum Activating Concentration: 1000 µM

## C=C(C)C1CC=C(C=O)CC1 (single isomer, unassigned; (-)) [(−)-Perillaaldehyde]
MOR131-1
  Minimum Activating Concentration: 1000 µM

## CCCCC(Br)C(=O)O (centres unmarked) [2-Bromohexanoic acid]
MOR170-1
  Minimum Activating Concentration: 1000 µM
MOR5-1
  Minimum Activating Concentration: 1000 µM

## CCCCCCC(Br)C(=O)O (centres unmarked) [2-Bromooctanoic acid]
MOR23-1
  Minimum Activating Concentration: 1000 µM
MOR5-1
  Minimum Activating Concentration: 1000 µM

## CC(=O)OCCc1ccccc1 [2-Phenethyl acetate]
MOR170-1
  Minimum Activating Concentration: 1000 µM

## O=C1Cc2ccccc2O1 [2-coumaranone]
Olfr62
  Minimum Activating Concentration: 1000 µM

## CCC(C)c1nccnc1OC (centres unmarked) [2-sec-Butyl-3-methoxypyrazine]
MOR139-1
  Minimum Activating Concentration: 1000 µM

## O=C1CCOc2ccccc21 [4-Chromanone]
MOR189-1
  Minimum Activating Concentration: 1000 µM
MOR139-1
  Minimum Activating Concentration: 1000 µM
MOR170-1
  Minimum Activating Concentration: 100 µM

## CCc1ccc(O)cc1 [4-Ethylphenol]
MOR170-1
  Minimum Activating Concentration: 1000 µM

## O=C(O)CCCCCBr [6-Bromohexanoic acid]
MOR23-1
  Minimum Activating Concentration: 100 µM
MOR5-1
  Minimum Activating Concentration: 1000 µM

## C=C(C)[C@@H]1CC[C@@H](C)C(=O)C1 [(+)-Dihydrocarvone]
MOR139-1
  Minimum Activating Concentration: 1000 µM

## CC(C)=C1CC[C@@H](C)CC1=O [(+)-Pulegone]
MOR139-1
  Minimum Activating Concentration: 1000 µM

## COc1ccc(C=O)cc1 [Anisaldehyde]
MOR170-1
  Minimum Activating Concentration: 1000 µM

## O=C(c1ccccc1)c1ccccc1 [Benzophenone]
Olfr62
  Minimum Activating Concentration: 1000 µM

## CC(=O)OCc1ccccc1 [Benzyl acetate]
MOR170-1
  Minimum Activating Concentration: 1000 µM

## CCCC=O [Butanal]
MOR139-1
  Minimum Activating Concentration: 1000 µM

## OCC=Cc1ccccc1 [Cinnamyl alcohol]
MOR170-1
  Minimum Activating Concentration: 1000 µM

## O=C(O)C1CCC1 [Cyclobutanecarboxylic acid]
MOR13-1
  Minimum Activating Concentration: 1000 µM

## CCCCCCCCCC=O [Decanal]
MOR25-1
  Minimum Activating Concentration: 1000 µM
MOR30-1
  Minimum Activating Concentration: 100 µM

## CCCCCCCCCC(=O)O [Decanoic-Acid]
MOR25-1
  Minimum Activating Concentration: 100 µM
MOR30-1
  Minimum Activating Concentration: 10 µM
MOR5-1
  Minimum Activating Concentration: 1000 µM

## CCCCCC1=C(C)CCC1=O [Dihydrojasmone]
MOR139-1
  Minimum Activating Concentration: 1000 µM

## CNc1ccccc1C(=O)OC [Dimethyl anthranilate]
MOR139-1
  Minimum Activating Concentration: 1000 µM
MOR170-1
  Minimum Activating Concentration: 10 µM

## C=CCc1ccc(OC)c(OC)c1 [Eugenol methyl ether]
MOR189-1
  Minimum Activating Concentration: 1000 µM
MOR139-1
  Minimum Activating Concentration: 1000 µM
MOR170-1
  Minimum Activating Concentration: 10 µM

## C=CCc1ccc(O)c(OC)c1 [Eugenol]
MOR139-1
  Minimum Activating Concentration: 1000 µM

## CCCCCCC=O [Heptanal]
MOR23-1
  Minimum Activating Concentration: 1000 µM

## CC(C)=CCC/C(C)=C\COC(=O)C(C)C [Neryl isobutyrate]
MOR139-1
  Minimum Activating Concentration: 1000 µM

## CCCCCCCCC=O [Nonanal]
MOR30-1
  Minimum Activating Concentration: 1000 µM
MOR23-1
  Minimum Activating Concentration: 1000 µM
MOR5-1
  Minimum Activating Concentration: 1000 µM

## CCCCCCCCC(=O)O [Nonanoic Acid]
MOR25-1
  Minimum Activating Concentration: 1000 µM
MOR30-1
  Minimum Activating Concentration: 100 µM
MOR23-1
  Minimum Activating Concentration: 1000 µM
MOR5-1
  Minimum Activating Concentration: 100 µM

## CCCCCCCC=O [Octanal]
MOR23-1
  Minimum Activating Concentration: 100 µM
MOR5-1
  Minimum Activating Concentration: 1000 µM

## O=Cc1ccc2c(c1)OCO2 [Piperonal]
Olfr62
  Minimum Activating Concentration: 1000 µM
MOR170-1
  Minimum Activating Concentration: 1000 µM

## COc1cc(C=O)ccc1O [Vanillin]
MOR170-1
  Minimum Activating Concentration: 1000 µM

## C/C=C/C(=O)C1=C(C)CCCC1(C)C [beta-Damascone]
MOR189-1
  Minimum Activating Concentration: 1000 µM

## CC(=O)/C=C/C1=C(C)CCCC1(C)C [beta-ionone]
MOR189-1
  Minimum Activating Concentration: 1000 µM
MOR139-1
  Minimum Activating Concentration: 1000 µM

## CCCCC/C=C\CCC=O [cis-4-Decenal]
MOR5-1
  Minimum Activating Concentration: 1000 µM

## CC/C=C\CCCCC=O [cis-6-Nonenal]
MOR5-1
  Minimum Activating Concentration: 1000 µM

## C/C=C(\C)C=O [trans-2-Methyl-2-butenal (2MB)]
MOR13-1
  Minimum Activating Concentration: 1000 µM
